From US20030186345A1, “Macromolecular enzyme substrates” (priority 2003, published 2003)

Biological target: thrombin (Homo sapiens, UniProt P00734)
Assay: Cleavage of pNA substrates by thrombin, kinetic parameters
Format: biochemical
Parameters: Human thrombin, bovine chymotrypsin; purchased Sigma Chemical Co. (St. Louis, Mo.)
Conditions: 37° C.; means of triplicates
Method: Measurements of protease activity at 25° C. or 37° C. were performed and analyzed as previously described (Hortin and Trimpe, J. Biol. Chem. 266:6866-6871, 1991) with a Cobas FARA analyzer (Roche Diagnostic Systems, Somerville, N.J.). […] Kinetic parameters were calculated from initial rates of reactions using Lineweaver-Burke plots. […] These reactions were performed in 100 mM tris(hydroxymethyl)-aminomethane pH 7.8 with 10 mm CaCl2. Substrate concentration were determined by absorbance at 342 nm, using an extinction coefficient of 8,260 mol^−1 and several concentrations were confirmed by absorbance measures at 405 or 410 nm after substrate hydrolysis, with extinction coefficient of 9,900 or 8,600 mol^−1, respectively, for the p-nitroaniline product (Lottenberg and Jackson, Biochim. Biophys. Acta 742:558-564, 1983). Molar concentration of chymotrypsin was determined by active site titration with p-nitrophenyl guanidinobenzoate and thrombin concentrations by titration with highly purified hirudin.

CC(=O)N[C@H](Cc1ccccc1)C(=O)N1CCCC[C@H]1C(=O)N[C@@H](CCCNC(=N)N)C(=O)Nc1ccc([N+](=O)[O-])cc1 [Ac-D-Phe-Pip-Arg-pNA]
Km: 23 µM
kcat: 3.0 S^−1
